The record followed here is PubChem BioAssay (NCI).

What all share (assay): inhibition of tumour cell growth, NCI panel, 48 h
Test [1] concerns SF-539 CNS.
The subject of test [2] is ACHN renal.
The test system of test [3] is SW-620 colon.
Test [4] relates to NCI-H522 lung.
In test [5] the test system is BT-549 breast.
Test [6] relates to MDA-MB-435.
Test [7] relates to NCI-H23 lung.
The test system of test [8] is UO-31 renal.
In test [9] the test system is SN12C renal.
Test [10] concerns MDA-MB-231 breast.
For test [11], the system named is HOP-92 NSCLC.

Where “and” joins values, the source holds several entries; their conditions need not be identical. Identical values can stand only once.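 Cells were grown in 96-well plates and exposed to each compound for 48 hours at five concentrations; endpoints were interpolated linearly between bracketing concentrations, or set to the highest concentration if not reached. Here, GI50 denotes the concentration required for 50% inhibition of growth. TGI: total growth inhibition.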

Regarding `NC(N)=NCCC[C@H](N)C(=O)NCC(=O)N[C@@H](CC(=O)O)c1ncc(NC(=O)C(F)(F)F)o1`, the TGI in test [1], in test [2], in test [3], in test [4], in test [5] and in test [6] was over 25 µM each time. The TGI in test [7] and in [8] was over 25 µM each time.

As for `COc1ccc(C2OC[C@H]3O[C@@H](OCc4ccccc4)[C@H](O)[C@@H](O)[C@@H]3O2)cc1` (some centres undefined), the TGI in [1], in [9], in [10], in test [2], in test [3] and in [11] was over 100 µM throughout. In addition, the TGI in test [5], in test [6], in test [7] and in test [8] was over 100 µM throughout.

Consider `Cn1cc(NC(=O)c2cc(NC(=O)CN=C(N)N)cn2C)cc1C(=O)NCCC(=N)N`, for which the TGI in test [1], in [9], in [2], in test [3], in test [4] and in [11] was over 100 µM throughout. Further, the TGI in test [5], in test [6], in test [7] and in test [8] was over 100 µM throughout.

`O=c1[nH]nc(-c2ccccc2)c2[nH]c3c4ccccc4ccc3c12`: the TGI in [1] is 3.17 µM; in test [9], over 100 µM; in [2], over 100 µM; in [3], over 100 µM; in [4], over 100 µM; in test [11], over 100 µM. Besides, the results for the TGI in test [6] and in test [7] were 0.673 µM and 32.7 µM, respectively.

Regarding `CC12C(=O)CC(CC1=O)C2(C)C`, the TGI in test [9], in [2], in [3], in test [4], in test [11] and in test [5] was over 100 µM each time. Also, the TGI in test [8] was over 100 µM.

Turning to `CC(C)=CCC/C(C)=C/C=C/C(C)=C/C=C/C(C)=C/C=C/C=C(C)/C=C/C=C(C)/C=C/[C@H]1C(C(C)(C)O)CC[C@]1(C)O` (some centres undefined), the TGI in test [1] is over 100 µM; in [10], 66.9 µM; in test [2], 45.5 µM; in test [3], 65.8 µM; in test [4], 36.8 µM; in test [11], 28.3 µM. Further, the TGI in test [6] was determined as 61.2 µM; in test [7] it was 72.7 µM; in test [8] it was 47 µM.

Regarding `N#CC(NC12CC3CC(CC(C3)C1)C2)c1ccccc1C(F)(F)F` (centres undefined), the TGI in test [1], in test [9], in test [2], in [3], in test [4] and in [7] was over 100 µM each time. Besides, the TGI in test [8] was over 100 µM.

With `CC1NC(=O)CC(c2ccccc2)N(N=O)C1c1ccccc1` (centres undefined), the TGI in test [1] was 48.4 µM; in test [9], over 100 µM; in test [3], over 31.6 µM; in test [4], 49.7 µM; in test [11], over 100 µM; in test [7], over 100 µM. This compound also showed a TGI in test [8] of over 100 µM.

Turning to `O=C1CCC(c2ccc(Cl)cc2)=NN1c1nsc2ccccc12`, the TGI in [1] was over 100 µM; in [9], 67.3 µM; in test [2], over 100 µM; in [3], over 100 µM; in test [11] it was 71.2 µM; in [7] it was over 100 µM. For the same compound, the TGI in test [8] worked out at 59.1 µM.

With `CC(=O)OC(/C=C/c1ccccc1)=C(OC(C)C)/C1=C(\c2ccccc2)SCCCSC1=O`, the TGI in test [1], in test [10], in test [2], in test [3], in [11] and in test [5] was over 100 µM throughout. Also, the TGI in test [6], in test [7] and in [8] was over 100 µM throughout.

With `NN/C(=N\S(=O)(=O)c1cc2ccccc2s1)Nc1ccc(Cl)cc1`, the TGI stood at 29.8 µM in test [1]; 39 µM in test [9]; 40.4 µM in test [10]; 54.4 µM in [2]; 54.9 µM in test [3]; 39.6 µM in test [11]. Moreover, the TGI in [5] stood at 35.6 µM; in test [7], 41.4 µM; in test [8], 32.1 µM.

As for `O=C1C=C(C2=CC(=O)C(=O)c3ccccc32)c2ccccc2C1=O`, the TGI in [1] is 82.4 µM; in test [9], over 100 µM; in test [10], 53.3 µM; in [2], over 100 µM; in test [3], 31.4 µM; in test [4] it was over 100 µM. Besides, the TGI was 39.3 µM in test [11], over 100 µM in test [5], over 100 µM in test [7] and over 100 µM in [8].

On to `C=CC(CCc1ccc(C(=O)OCC)cc1)c1c(N)nc(N)[nH]c1=O` (centres undefined), for which the TGI was over 100 µM in test [1]; over 100 µM in test [9]; over 100 µM in [10]; over 100 µM in test [3]; 83.8 µM in test [11]; over 100 µM in test [5]. The TGI in test [6], in [7] and in [8] was over 100 µM in each case.

Turning to `O=P(Nc1ccc(Cl)cc1)(Oc1ccccc1)N(CCCl)CCCl` (centres undefined), the TGI in test [1], in test [9], in [2], in [3], in [4] and in test [11] was over 100 µM in each case. For the same compound, the TGI in [7] and in test [8] was over 100 µM in each case.

`COc1cc(/C=C(\C#N)C(N)=O)cc(Br)c1O`: the TGI in [1] was over 100 µM; in [9], over 100 µM; in [3] it was over 100 µM; in test [4] it was 35.4 µM and 87.3 µM; in test [11] it was 93.3 µM and > 100 µM; in test [7], over 100 µM. In test [8], this compound yielded a TGI of over 100 µM. Further, the GI50 was > 100 µM and 34 µM in [9]; 15.7 µM and 28.9 µM in test [4]; 21.8 µM and > 100 µM in test [11]; 43 µM and > 100 µM in test [7].

Regarding `NC(Cc1ccccc1)C(=O)N[C@H]1c2ccsc2/C(=N/O)[C@H]1O` (some centres undefined), the TGI in test [1], in [9], in test [10], in [3], in test [11] and in test [5] was over 100 µM in each case. Also, the TGI in test [6], in test [7] and in test [8] was over 100 µM each time.

Take `C[C@]12CCC(=O)O[C@H]1CCCCO2`: the TGI was over 100 µM in [1]; over 100 µM in [9]; over 100 µM in test [10]; over 100 µM in test [3]; over 100 µM in test [4]; 71.1 µM in [11]. Moreover, the TGI in test [6] is over 100 µM.

As for `CCN(CC)C(=S)N/N=C(/C)c1cccc(/C(C)=N\NC(=S)N(CC)CC)n1`, the TGI in test [1] was determined as 3.28 µM; in test [9], 12.4 µM; in test [10], 7.64 µM; in test [2] it was 4.61 µM; in test [3] it was 15.2 µM; in test [4], 16 µM. The TGI in test [11] came out at 7.74 µM; in test [6], 14.9 µM; in test [7], 19.2 µM; in test [8], 7.94 µM.

Consider `COc1cc(Cn2c3c(c4cc(O)ccc42)Cc2ccccc2C3=O)cc(OC)c1`, for which the TGI in [1] was over 100 µM; in [9], 57.3 µM; in [10], over 100 µM; in test [3], over 100 µM; in test [5], over 100 µM; in [6], over 100 µM. Moreover, the TGI in test [7] and in [8] was over 100 µM each time.

In the case of `C=CCCN1CCc2c([nH]c3ccccc23)C1C(=O)O` (centres undefined), the TGI in [1], in [9], in test [2], in [3], in test [4] and in [11] was over 100 µM throughout. The TGI in [7] and in test [8] was over 100 µM in each case.

As to `O=C1/C(=N/O)Cc2c(Br)ccc(Br)c21`, the TGI in [1] was over 100 µM; in [10], over 100 µM; in [2], over 100 µM; in [3], over 100 µM; in test [4], 91.3 µM; in test [11], over 100 µM. Moreover, the TGI in test [6], in [7] and in [8] was over 100 µM each time.

`CCOc1cn(C2CC(O)C(CO)O2)c(=O)[nH]c1=O` (centres undefined): the TGI in test [9], in test [10], in test [2], in test [3], in test [11] and in test [5] was over 100 µM throughout. The TGI in [6], in test [7] and in [8] was over 100 µM throughout.

In the case of `CN1CCC(O)(C(C)(C)C)CC1`, the TGI in test [9], in test [10], in test [2], in test [3], in [5] and in [6] was over 100 µM in each case. Also, the TGI in test [7] and in [8] was over 100 µM each time.

For `Nc1nc(N)c2ncn(-c3ccc(Cl)cc3)c2n1`, the TGI in [1] is 80.5 µM; in test [9], over 100 µM; in test [10], over 100 µM; in test [2] it was over 100 µM; in [4], over 100 µM; in [11], over 100 µM. The TGI in test [6], in test [7] and in test [8] was over 100 µM each time.

Take `COC1C=CC(O)C(CO)O1` (centres undefined): the TGI in test [1], in [9], in [2], in test [3], in test [4] and in test [11] was over 100 µM in each case. Besides, the TGI in test [7] and in [8] was over 100 µM each time.

`NC(N)=N/N=C/c1c[nH]c2ccccc12`: the TGI in test [1], in test [9], in test [2], in test [3], in test [4] and in test [7] was over 100 µM in each case. Also, the TGI in [8] was over 100 µM.

As for `O=Cc1ccc2c(c1)CC1(Cc3ccccc3C1)C2`, the TGI in test [1] was 33.2 µM; in test [9] it was 34.4 µM; in test [10], 30.4 µM; in test [2], 65.7 µM; in test [4] it was over 100 µM; in test [11], 32.9 µM. Also, the values for the TGI in [6], in [7] and in [8] were 37.6 µM, 50 µM and 58.7 µM, respectively.

Turning to `O=C1C=CC[C@H]2O[C@@H](COC(=O)Cc3ccccc3)C[C@H]2O1`, the TGI in [1], in [9], in test [10], in [2], in test [3] and in test [11] was over 100 µM in each case. Further, the TGI in test [6] is over 100 µM; in [7], 66.6 µM; in test [8] it was over 100 µM.

For the compound `COc1cc(C(=O)N(Cc2cccnc2)C(=S)N(Cc2cccnc2)C(=O)c2cc(OC)c(OC)c(OC)c2)cc(OC)c1OC`, the TGI was over 100 µM in [1]; over 100 µM in [9]; over 100 µM in [2]; over 100 µM in test [3]; 97.5 µM in test [4]; 52.2 µM in test [11]. In addition, the TGI in test [5] was 85.5 µM; in test [6], over 100 µM; in [7] it was over 100 µM; in test [8], over 100 µM.
